These are literature values, as cited in paper PMC3387528 (Journal of the American Chemical Society, 2011).

One data set relates to dsDNA. Conditions: substrate dsDNA; no coreagents; pH 7.0, 37 °C; ref [22].
Data set [1] deals with ApA (adenylyl(3′-5′)adenosine). As to conditions: substrate ApA; no coreagents; pH 7.2, 30 °C; ref [28].

As to `[Eu+3]` [Eu^3+], in the data set with dsDNA, the “k2, expressed as kcat/KM” value is on record as 108 ^b M^−1 min^−1.

Regarding `[Cl][Lu]([Cl])[Cl]` [LuCl3], in data set [1], the “k2, second-order rate constant” value is 0.633 M⁻¹ s⁻¹.
